# How the values were obtained:
# [1] = test system: Pseudomonas aeruginosa strain ATCC 27317; assay: Biological activity testing of eluates and antibiotic dilutions, growth in TSB, A530; type: cell-based; settings: P. aeruginosa ATCC 27317, observed
# Procedure: Pseudomonas aeruginosa strain ATCC 27317 was used for biological activity testing of AmikacinTM and GentamicinTM eluates. A clinical isolate of Staphylococcus aureus Cowan I strain was used to assess activity of VancomycinTM eluates. The eluate having the lowest concentration for each antibiotic at each of the specified time points was used in the biological activity assay. P. aeruginosa or S. aureus was grown overnight at 37° C. in Trypticase soy broth (TSB). Conical tubes were prepared with 1.75 ml of TSB and 200 μl of antibiotic dilutions (AmikacinTM: 0-640 μg/ml, GentamicinTM: 0-2560 μg/ml, VancomycinTM: 0-160 μg/ml), or 200 μl eluate samples, or 200 μl buffer. All tubes except blanks were inoculated with 50 μl of 1:50 dilution of bacteria. Blanks were supplanted with an additional 50 μl of TSB instead of bacteria. The tubes were vortexed and incubated at 37° C. for 24 hours. A blank was used to adjust the spectrophotometer to zero, and the absorbance at 530 nm ([…]) was recorded. Results were reported as percent growth relative to control, calculated as ([…] sample/[…] control)×100. This method dilutes the sample concentration by a factor of 10. Testing was repeated for three replicates of the samples.
# [2] = Elution of antibiotic from pellets or flakes into PBS at 37° C., Fluorescence Polarization Immunoassay; type: physicochemical; settings: from rapidly resorbing pellets loaded with 4% antibiotic, FIG. 2
# Procedure: Elution was characterized by placing groups of eight pellets or the flakes of eight pellets (n≧3) in 20 ml phosphate buffered saline (PBS) in a 37° C. water bath. At specified times (t=1, 4, 8, 12, 24, 36, 48, 72, 96, 120, 144, 168, 240 hours), aliquots were removed and frozen at -40° C. At each time interval, the pellets were removed and placed in 20 ml fresh PBS. The amount of antibiotic in the eluates was determined (μg/ml) using a Florescence Polarization Immunoassay ([…], Abbott Laboratories, Abbott Park, Ill.). Testing was repeated for three batches of pellets.
compound,measurement,setting,value
"NCC[C@H](O)C(=O)N[C@@H]1C[C@H](N)[C@@H](O[C@H]2O[C@H](CN)[C@@H](O)[C@H](O)[C@H]2O)[C@H](O)[C@H]1O[C@H]1O[C@H](CO)[C@@H](O)[C@H](N)[C@H]1O [Amikacin™, Amikacin]",MIC,"[1]; Pseudomonas aeruginosa, ATCC27317, read-out: minimum inhibitory concentration (MIC)",4 mg/L
same,Elution profile (qualitative),[2],peak at hour one and decrease exponentially
"CN[C@H](CC(C)C)C(=O)N[C@H]1C(=O)N[C@@H](CC(N)=O)C(=O)N[C@H]2C(=O)N[C@H]3C(=O)N[C@H](C(=O)N[C@H](C(=O)O)c4cc(O)cc(O)c4-c4cc3ccc4O)[C@H](O)c3ccc(c(Cl)c3)Oc3cc2cc(c3O[C@@H]2O[C@H](CO)[C@@H](O)[C@H](O)[C@H]2O[C@H]2C[C@](C)(N)[C@H](O)[C@H](C)O2)Oc2ccc(cc2Cl)[C@H]1O [Vancomycin™, Vancomycin]",Elution profile (qualitative),[2],burst of antibiotic in hour one
Gentamicin [Gentamicin™],minimum inhibitory concentration (MIC),[1],4.0 mg/L
same,Elution profile (qualitative),[2],peak at hour one and decrease exponentially
